According to patent US20060276537A1, “Use of ladostigil for the treatment of multiple sclerosis” (priority 2005, published 2006):
Like-named read-outs stand apart in the source and are kept apart here.

Legend:
Format in all cases: in vivo
[1] = target: T1, butyrylcholinesterase (BChE) (Mus musculus, UniProt Q03311); assay: Cholinesterase assay (modified Ellman, BTC substrate) in brain and blood of treated EAE mice; conditions: for Brain BuChE U/g: results on the limit of assay sensitivity; for inhibition at 10.2 mg/kg / inhibition at 25.5 mg/kg / inhibition at 51 mg/kg / inhibition at 70.1 mg/kg: mouse
T1 construct: Homogenate of 100 mg brain tissue in 1 ml 100 mM phosphate buffer pH=8.0 was prepared; from tissue; host or cells: brain homogenate and blood hemolysate of ladostigil-treated EAE mice
Experimental: From the mice of Example 2, acetylcholinesterase (AChE) and butyrylcholinesterase (BChE) activities were determined by a modification of Ellman's spectophotometric method using acetyltiocholine (ATC) and butyryltiocholine (BTC) as substrates.
Homogenate of 100 mg brain tissue in 1 ml 100 mM phosphate buffer pH=8.0 was prepared. 0.4 ml of crude homogenate was added to 1.2 ml pre-warmed 4 mM 5,5′-Dithiobis(2-nitrobenzoic acid) (DTNB or Ellman's reagant); 30 μl from this mixture were added to 210 μl pre-warmed (28° C.) 50 mM phosphate buffer in a microplate; and the reaction was started by addition of 10 μl ATC or BTC (final concentration=1 mM) or water (for the blank reaction) The increase in optical density (OD) at 412 nm was monitored for 3 minutes and the slope of the straight line obtained by linear regression provided the activity in terms of ΔOD/min using SOFTMAX® software. Blank reaction was subtracted.
Conversion of ΔOD/min into Enzyme Activity was Performed as Follows: Unit enzyme/gram tissue=OD/min*0.25/10.54*4*1000/30*11
The same procedure was performed as with brain homogenate using 50 μl of ¼ hemolysate/DTNB mixture.
Enzyme activity in the blood was calculated in units/1 ml whole blood.
BuChE activity was calculated directly from the ΔOD/min of BTC.

[2] = test system: relapsing remitting EAE in 129/SvEv mice; assay: MOG-induced relapsing remitting EAE in 129/SvEv mice
Experimental: This experiment is conducted to evaluate whether ladostigil tartrate is effective in alleviating EAE. EAE is induced in mice by the administration of myelin oligodendrocyte glycoprotein (MOG). Injection of MOG into 129/SvEv mice produces a relapsing remitting EAE (murine model of relapsing remitting multiple sclerosis).
One week before MOG immunization, 129/SvEv mice receive a sub-optimal dose of ladostigil tartrate or saline vehicle. Over a period of 1-2 months following MOG immunization, clinical scores are monitored by weighing animals on a daily basis and grading the severity of EAE. In addition to clinical evaluation, groups of mice are sacrificed at weekly intervals for routine histological examination (hematoxylin-eosin and luxol fast blue for evidence of inflammation and demyelination, respectively). Also, cellular infiltrates are examined for CD3 (T lymphocytes), CD56 (natural killer cells) and CD19 (B cell immunohistochemistry). Loss of neurons and oligodendrocytes is assessed using immunohistochemistry for NeuN and glutathione-S-transferase pi isoform, respectively. Furthermore, axonal integrity is examined using immunohistochemistry for β-amyloid precursor protein or neurofilament, and by Bielchowsky silver stains. The neuropathological assessments are focused on the optic nerve, lumbar/sacral cord and brain stem.

[3] = target: T2, MAO-B (Mus musculus, UniProt Q8BW75); assay: MAO assay (14C PEA substrate) in brains of treated EAE mice
T2 construct: in the brains of EAE mice; from tissue; host or cells: brain homogenate of ladostigil-treated EAE mice
T2 sequence (Q8BW75 1-520): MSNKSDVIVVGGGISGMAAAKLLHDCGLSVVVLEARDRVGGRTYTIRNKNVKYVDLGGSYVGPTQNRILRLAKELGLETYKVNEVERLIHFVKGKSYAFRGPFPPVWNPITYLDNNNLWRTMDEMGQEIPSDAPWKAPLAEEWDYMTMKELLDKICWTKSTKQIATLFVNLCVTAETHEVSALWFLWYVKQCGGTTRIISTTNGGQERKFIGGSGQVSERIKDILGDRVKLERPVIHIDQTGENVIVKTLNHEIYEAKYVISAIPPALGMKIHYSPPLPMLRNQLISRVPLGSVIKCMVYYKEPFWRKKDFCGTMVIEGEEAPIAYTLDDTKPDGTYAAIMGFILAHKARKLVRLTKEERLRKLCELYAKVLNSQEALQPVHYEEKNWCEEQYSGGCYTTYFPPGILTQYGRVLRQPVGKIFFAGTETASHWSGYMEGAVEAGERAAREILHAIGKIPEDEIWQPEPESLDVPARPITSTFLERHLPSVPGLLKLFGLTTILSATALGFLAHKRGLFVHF
Experimental: From the mice of Example 2, the level of MAO (MAO-A and MAO-B) inhibition was determined using ^14C-Labeled 2-phenylethylamine and 5-hydroxytryptamine as substrates.
The MAO enzyme obtained from a homogenate of rat brain in 0.3M sucrose, which was centrifuged at 600 g for 15 minutes. The supernatant is diluted appropriately in 0.05M phosphate buffer, and pre-incubated with serial dilutions of test compounds for 20 minutes at 37° C. ^14C-Labeled substrates (2-phenylethylamine, hereinafter PEA; 5-hydroxytryptamine, hereinafter 5-HT) are then added, and the incubation continued for a further 20 minutes (PEA), or 30-45 minutes (5-HT). Substrate concentrations used are 50 μM (PEA) and 1 mM (5-HT). In the case of PEA, enzyme concentration is chosen so that not more than 10% of the substrate is metabolized during the course of the reaction. Deaminated products are extracted into toluene-ethyl acetate (1:1 v/v) containing 0.6% (w/v) 2,5-diphenyloxazole (ppo) prior to determination by liquid scintillation counting. Radioactivity in the eluate indicates the production of neutral and acidic metabolites formed as a result of MAO activity. Activity of MAO in the sample is expressed as a percentage of control activity in the absence of inhibitors after subtraction of appropriate blank values. The activity determined using PEA as substrate is referred to as MAO-B, and that determined using 5-HT as MAO-A. Concentrations of inhibitor producing 50% inhibition of substrate metabolism (IC50) are calculated from the inhibition curves.

[4] = sub-optimal dose from one week before MOG immunization, vs saline vehicle

T1 sequence (Q03311 30-603): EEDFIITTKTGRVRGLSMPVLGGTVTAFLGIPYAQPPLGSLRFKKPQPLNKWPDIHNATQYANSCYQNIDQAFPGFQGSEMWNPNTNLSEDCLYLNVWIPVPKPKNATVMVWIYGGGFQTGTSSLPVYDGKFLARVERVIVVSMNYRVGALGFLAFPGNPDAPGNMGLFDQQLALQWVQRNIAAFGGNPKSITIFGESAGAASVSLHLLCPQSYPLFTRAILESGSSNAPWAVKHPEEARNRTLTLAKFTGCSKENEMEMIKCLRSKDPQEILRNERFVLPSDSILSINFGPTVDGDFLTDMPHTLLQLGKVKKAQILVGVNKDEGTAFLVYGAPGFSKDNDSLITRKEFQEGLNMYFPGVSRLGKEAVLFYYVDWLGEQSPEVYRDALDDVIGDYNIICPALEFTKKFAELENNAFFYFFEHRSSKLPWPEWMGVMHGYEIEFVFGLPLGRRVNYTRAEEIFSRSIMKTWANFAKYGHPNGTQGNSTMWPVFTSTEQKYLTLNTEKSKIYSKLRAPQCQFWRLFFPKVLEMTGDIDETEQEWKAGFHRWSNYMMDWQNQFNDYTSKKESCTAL

For `C#CCN[C@@H]1CCc2ccc(OC(=O)N(C)CC)cc21` [Ladostigil, R(+)-6-(N-methyl,N-ethyl-carbamoyloxy)-N′-propargyl-1-aminoindan], the BChE inhibition ([1]; 51 and 70.1 mg/kg/day, brain and blood) was 35-42%, the “Blood BuChE U/ml” value ([1]; blood of EAE mice, 10.2 mg/kg salt) was 1.52 +/− 0.24 U/ml and the “Blood BuChE U/ml” value ([1]; blood of EAE mice, 25.5 mg/kg salt) was 1.47 +/− 0.18 U/ml. For the same compound, the “Blood BuChE U/ml” value ([1]; blood of EAE mice, 51 mg/kg salt) was 1.06 +/− 0.21 U/ml, the “Blood BuChE U/ml” value ([1]; blood of EAE mice, 70.1 mg/kg salt) was 1.01 +/− 0.18 U/ml and the “Brain BuChE U/g” value ([1]; brain of EAE mice, 10.2 mg/kg salt) was 0.35 +/− 0.04 U/g. The “Brain BuChE U/g” value ([1]; brain of EAE mice, 25.5 mg/kg salt) was 0.31 +/− 0.04 U/g, the “Brain BuChE U/g” value ([1]; brain of EAE mice, 51 mg/kg salt) was 0.22 +/− 0.03 U/g and the “Brain BuChE U/g” value ([1]; brain of EAE mice, 70.1 mg/kg salt) was 0.25 +/− 0.06 U/g. The inhibition at 10.2 mg/kg ([1]; blood of EAE mice, 10.2 mg/kg salt, read-out: Blood BchE % inhibition) was 6.7%, the inhibition at 25.5 mg/kg ([1]; blood of EAE mice, 25.5 mg/kg salt, read-out: Blood BchE % inhibition) was 10.1% and the inhibition at 51 mg/kg ([1]; blood of EAE mice, 51 mg/kg salt, read-out: Blood BchE % inhibition) was 35.3%. For the same compound, the inhibition at 70.1 mg/kg ([1]; blood of EAE mice, 70.1 mg/kg salt, read-out: Blood BchE % inhibition) was 38.4%, the inhibition at 10.2 mg/kg ([1]; brain of EAE mice, 10.2 mg/kg salt, read-out: Brain BchE % inhibition) was 7.9% and the inhibition at 25.5 mg/kg ([1]; brain of EAE mice, 25.5 mg/kg salt, read-out: Brain BchE % inhibition) was 18.4%. For the same compound, the inhibition at 51 mg/kg ([1]; brain of EAE mice, 51 mg/kg salt, read-out: Brain BchE % inhibition) was 42.1%, the inhibition at 70.1 mg/kg ([1]; brain of EAE mice, 70.1 mg/kg salt, read-out: Brain BchE % inhibition) was 34.2% and the “incidence and severity of EAE” value ([2]; compared to control) was “decreases both the incidence and severity of EAE”. The “area under the curve (clinical score)” value [2, 4] was “smaller area under the curve”, the clinical score [2, 4] was “lower clinical score” and the “inhibition of MAO-B” value ([3]; 51 and 70.1 mg/kg/day, brain) was 81-89%. The MAO-B activity dpm ([3]; brain of EAE mice, 10.2 mg/kg) was 8784 +/− 1047 dpm, the MAO-B activity dpm ([3]; brain of EAE mice, 25.5 mg/kg) was 4258 +/− 467 dpm and the MAO-B activity dpm ([3]; brain of EAE mice, 51 mg/kg) was 2424 +/− 1122 dpm. For the same compound, the MAO-B activity dpm ([3]; brain of EAE mice, 70.1 mg/kg) was 1382 +/− 250 dpm, the inhibition at 10.2 mg/kg ([3]; mouse, brain of EAE mice, 10.2 mg/kg) was 32% and the inhibition at 25.5 mg/kg ([3]; mouse, brain of EAE mice, 25.5 mg/kg) was 67%. The inhibition at 51 mg/kg ([3]; mouse, brain of EAE mice, 51 mg/kg) was 81% and the inhibition at 70.1 mg/kg ([3]; mouse, brain of EAE mice, 70.1 mg/kg) was 89%.
